{
  "source": "patent US11529323B2",
  "about": "(priority 2017, dated 2022)",
  "key": {"[1]": {"test_system": "C-26 colon adenocarcinoma cachexia model", "test": "Combined androgen and AR-42 study (Study 3), C-26 model", "assay_type": "in vivo, mouse", "conditions": "Study 3", "description": "These studies were performed as previously described (Tseng Y C, et al. J Natl Cancer Inst. 2015 107(12):djv274) with modifications. Tumors were established in the right flank by subcutaneous injection of C-26 cells (0.5×10^6 cells in 0.1 mL). […] TFM-4AS-1 (a potent experimental SARM), dihydrotestosterone (DHT) and vehicles were administered by subcutaneous injection.\nSix days after cell injection, animals with palpable tumors were treated once daily for 13 days with vehicles for AR-42 and TFM-4AS-1/DHT (n=9), AR-42 (10 mg/kg; TFM-4AS-1/DHT vehicle; n=10), TFM-4AS-1 (10 mg/kg; AR-42 vehicle; n=9), DHT (3 mg/kg; AR-42 vehicle; n=10), the combination of AR-42 and TFM-4AS-1 (10 mg/kg each; n=9), or the combination of AR-42 (10 mg/kg) and DHT (3 mg/kg)(n=10). Grip strength was measured and tissues collected as in the previous studies.\nForelimb grip strength was measured using Bio-GS3 Grip Strength Test Meter (Forceleader DBA Bioseb, Pinellas Park, Fla.). Each mouse was held by the base of its tail and lowered over the apparatus until its forepaws grasped the metal pull bar. The mouse was then gently pulled horizontally in a straight line away from the grip strength meter until the mouse released the bar. The force applied to the bar at the moment of release was recorded as the peak force. Five measurements were taken from each mouse, the average of which was designated as the mouse's grip strength."}, "[2]": {"conditions": "Jones et al. 2010; cited from earlier work"}},
  "data": [
    {"smiles": "C[C@]12CCC(=O)C[C@@H]1CC[C@@H]1[C@@H]2CC[C@]2(C)[C@@H](O)CC[C@@H]12", "note": "[DHT, dihydrotestosterone]", "values": [
      {"measurement": "tumor growth", "setting": "[1]; DHT alone 3 mg/kg, after 8 days of administration", "value": "tumor growth was significantly suppressed"}
    ]},
    {"smiles": "C[C@](O)(COc1ccc(Cl)c(F)c1)C(=O)Nc1ccc(C#N)c(C(F)(F)F)c1", "note": "[S-23]", "values": [
      {"measurement": "effect on orchiectomy- and glucocorticoid-mediated wasting", "setting": "[2]", "value": "reversed orchiectomy- and glucocorticoid-mediated wasting"}
    ]},
    {"smiles": "CN1C(=O)C=C[C@]2(C)[C@H]3CC[C@]4(C)[C@@H](C(=O)Nc5ccccc5C(F)(F)F)CC[C@H]4[C@@H]3CC[C@@H]12", "note": "[TFM-4AS-1]", "values": [
      {"measurement": "effect on body weight", "setting": "[1]; TFM-4AS-1 10 mg/kg monotherapy", "value": "did not spare body weight"},
      {"measurement": "effect on mass of gastrocnemius or quadriceps", "setting": "[1]; monotherapy (TFM-4AS-1 10 mg/kg; AR-42 10 mg/kg)", "value": "did not spare"}
    ]}
  ]
}
